According to US6727264B1 (Synaptic Pharmaceutical Corporation, priority 2001, dated 2004):

Biological target: rat MCH-1 (Rattus norvegicus, UniProt P97639)
Assay: Radioligand binding assay at cloned rat MCH1 receptor ([3H] Compound A)
Set-up: host or cells: Peak rapid 293 (Peakr293) cells, transient calcium phosphate transfection, membranes
Conditions: cloned rat MCH1 receptor, membranes from Peakr293 cells, 0.08 nM [3H] Compound A; read-out: Ki (nM) rMCH1

rat MCH-1, sequence (P97639 whole entry): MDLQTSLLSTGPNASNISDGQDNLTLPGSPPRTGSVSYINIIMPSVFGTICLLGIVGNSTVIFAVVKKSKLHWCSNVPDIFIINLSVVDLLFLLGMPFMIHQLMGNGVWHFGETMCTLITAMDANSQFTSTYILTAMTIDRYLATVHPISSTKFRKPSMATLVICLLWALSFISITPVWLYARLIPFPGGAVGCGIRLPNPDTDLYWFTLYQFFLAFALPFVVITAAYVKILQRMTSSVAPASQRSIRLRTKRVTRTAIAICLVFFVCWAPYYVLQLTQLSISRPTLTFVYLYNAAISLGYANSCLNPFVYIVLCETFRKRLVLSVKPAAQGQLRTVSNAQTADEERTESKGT

| Ki [nM] | SMILES |
| --- | --- |
| 8 | COc1ccc2[nH]c(-c3ccccc3)c(CCCCN3CCC(c4cccc(NC(=O)C(C)C)c4)CC3)c2c1 [Example 92] |
| 4.2 | CC(C)C(=O)Nc1cccc(C2CCN(Cc3cn(-c4ccccc4)c4ccccc34)CC2)c1 [Example 93] |
| 2.3 | CC(C)C(=O)Nc1cccc(C2CCN(CCC/C(=N\Nc3ccccn3)c3ccccc3)CC2)c1 [Example 94] |
| 5.4 | COc1ccc2[nH]cc(CCCN3CCC(c4cccc(NC(=O)C(C)C)c4)CC3)c2c1 [Example 95] |
| 15.9 | CC(C)C(=O)Nc1cccc(C2CCN(CCCCCCn3ccc4ccccc43)CC2)c1 [Example 96] |
| 27.3 | CC(C)C(=O)Nc1cccc(C2CCN(CCCCCn3ccc4ccccc43)CC2)c1 [Example 97] |
| 37.9 | CCn1c2ccccc2c2cc(CN3CCC(c4ccc(NC(=O)C(C)C)cc4)CC3)ccc21 [Example 98] |
| 27.5 | COc1ccc(-n2ccc3cc(CN4CCC(c5cccc(NC(=O)C(C)C)c5)CC4)ccc32)cc1 [Example 100] |
| 7.8 | CC(C)C(=O)Nc1cccc(C2CCN(Cc3ccc4c(ccn4-c4ccc(F)cc4)c3)CC2)c1 [Example 101] |
| 21.3 | Cc1cccc(-n2ccc3cc(CN4CCC(c5cccc(NC(=O)C(C)C)c5)CC4)ccc32)c1 [Example 103] |
| 11.2 | CC(C)C(=O)Nc1cccc(C2CCN(CCCNS(=O)(=O)c3ccc(Cl)c([N+](=O)[O-])c3)CC2)c1 [Example 104] |
| 4.6 | CC(C)C(=O)Nc1cccc(C2CCN(CCCCCN3C(=O)OCC3c3ccc(F)c(F)c3)CC2)c1 (stereo not shown) [Example 105] |
| 1.7 | CC(C)C(=O)Nc1cccc(C2CCN(CCNC(=O)C(c3ccccc3)c3ccccc3)CC2)c1 [Example 107] |
| 20.9 | Cc1cc(CN2CCC(c3cccc(NC(=O)C(C)C)c3)CC2)c(C)n1-c1cccc(C(F)(F)F)c1 [Example 109] |
| 6.1 | CC(C)C(=O)Nc1cccc(C2CCN(Cc3ccc(Oc4ccc(Cl)c(Cl)c4)cc3)CC2)c1 [Example 112] |
| 3.6 | CC(C)C(=O)Nc1cccc(C2CCN(Cc3ccc(N(c4ccccc4)c4ccccc4)cc3)CC2)c1 [Example 114] |
| 19 | CC(C)C(=O)Nc1cccc(C2CCN(CCC(=O)c3ccc(Br)cc3)CC2)c1 [Example 117] |
| 43.6 | CC(C)C(=O)Nc1cccc(C2CCN(CCC(=O)c3ccc(Cl)cc3)CC2)c1 [Example 118] |
| 75.7 | COc1ccc(C(=O)CCN2CCC(c3cccc(NC(=O)C(C)C)c3)CC2)cc1 [Example 119] |
| 31.1 | CC(C)C(=O)Nc1cccc(C2CCN(CCC(=O)c3ccc4c(c3)CCC4)CC2)c1 [Example 120] |
| 184 | CC(C)C(=O)Nc1cccc(C2CCN(CCC(=O)c3ccccc3)CC2)c1 [Example 121] |
| 85.1 | Cc1ccc(C(=O)CCN2CCC(c3cccc(NC(=O)C(C)C)c3)CC2)cc1 [Example 122] |
| 450 | CC(C)C(=O)Nc1cccc(C2CCN(CCC(=O)c3ccc(F)cc3)CC2)c1 [Example 123] |
| 33 | CC(C)C(=O)Nc1cccc(C2CCN(CCC(O)c3ccc(Cl)cc3)CC2)c1 (stereo not shown) [Example 124] |

| Ki [nM] | SMILES |
| --- | --- |
| 5.4 | CC(C)C(=O)Nc1cccc(C2CCN(CCC(Oc3ccc(F)c(F)c3)c3ccc(Cl)cc3)CC2)c1 (stereo not shown) [Example 125] |
| 13.8 | Cc1ccccc1OC(CCN1CCC(c2cccc(NC(=O)C(C)C)c2)CC1)c1ccc(Cl)cc1 (stereo not shown) [Example 126] |
| 168 | CC(C)C(=O)Nc1cccc(C2CCN(CCC(O)c3ccc(F)cc3)CC2)c1 (stereo not shown) [Example 127] |
| 329 | COc1ccc(C(O)CCN2CCC(c3cccc(NC(=O)C(C)C)c3)CC2)cc1 (stereo not shown) [Example 128, N-(3-{1-[3-HYDROXY-3-(4- METHOXYPHENYL)PROPYL]-4-PIPERIDINYL}PHENYL)-2-METHYLPROPANAMIDE] |
| 38.8 | CC(C)C(=O)Nc1cccc(C2CCN(CCC(O)c3ccc(Br)cc3)CC2)c1 (stereo not shown) [Example 129] |
| 6 | COc1ccc(OC(CCN2CCC(c3cccc(NC(=O)C(C)C)c3)CC2)c2ccc(Cl)cc2)cc1 (stereo not shown) [Example 130] |
| 11.9 | CC(C)C(=O)Nc1cccc(C2CCN(CCC(Oc3ccc(Cl)cc3)c3ccc(F)cc3)CC2)c1 (stereo not shown) [Example 131] |
| 41.7 | CC(C)C(=O)Nc1cccc(C2CCN(CCC(Oc3c(F)c(F)c(F)c(F)c3F)c3ccc(F)cc3)CC2)c1 (stereo not shown) [Example 132] |
| 14.1 | Cc1ccccc1OC(CCN1CCC(c2cccc(NC(=O)C(C)C)c2)CC1)c1ccc(Br)cc1 (stereo not shown) [Example 133] |
| 36.6 | CC(C)C(=O)Nc1cccc(C2CCN(CCC(Oc3ccc(F)c(F)c3)c3ccc(F)cc3)CC2)c1 (stereo not shown) [Example 134] |
| 10.9 | CC(C)C(=O)Nc1cccc(C2CCN(CCC(Oc3ccc(Br)cc3)c3ccc(F)cc3)CC2)c1 (stereo not shown) [Example 135] |
| 15.9 | CC(C)C(=O)Nc1cccc(C2CCN(CCC(Oc3ccc(Cl)c(Cl)c3)c3ccc(F)cc3)CC2)c1 (stereo not shown) [Example 136] |
| 25.2 | CC(C)C(=O)Nc1cccc(C2CCN(CCC(Oc3ccc(C(F)(F)F)cc3)c3ccc(F)cc3)CC2)c1 (stereo not shown) [Example 137] |
| 9.3 | CC(C)C(=O)Nc1cccc(C2CCN(CCC(Oc3cccc(Br)c3)c3ccc(F)cc3)CC2)c1 (stereo not shown) [Example 138] |
| 38.7 | CC(C)C(=O)Nc1cccc(C2CCN(CCC(Oc3ccc(F)cc3)c3ccc(F)cc3)CC2)c1 (stereo not shown) [Example 139] |
| 27.4 | CC(C)C(=O)Nc1cccc(C2CCN(CCC(Oc3cccc(F)c3)c3ccc(F)cc3)CC2)c1 (stereo not shown) [Example 140] |
| 61 | CC(C)C(=O)Nc1cccc(C2CCN(CCC(Oc3c(Cl)cccc3Cl)c3ccc(F)cc3)CC2)c1 (stereo not shown) [Example 141] |
| 18.3 | CC(C)C(=O)Nc1cccc(C2CCN(CCC(Oc3cc(F)ccc3F)c3ccc(F)cc3)CC2)c1 (stereo not shown) [Example 142] |
| 8.7 | CC(C)C(=O)Nc1cccc(C2CCN(CCC(Oc3cccc(Cl)c3)c3ccc(F)cc3)CC2)c1 (stereo not shown) [Example 143] |
| 13.4 | Cc1cccc(OC(CCN2CCC(c3cccc(NC(=O)C(C)C)c3)CC2)c2ccc(Br)cc2)c1 (stereo not shown) [Example 144] |
| 197 | CC(C)C(=O)Nc1cccc(C2CCN(CCC(Oc3ccc(-c4ccccc4)cc3)c3ccc(Br)cc3)CC2)c1 (stereo not shown) [Example 145] |
| 19.2 | CC(C)C(=O)Nc1cccc(C2CCN(CCC(Oc3ccc(F)cc3F)c3ccc(F)cc3)CC2)c1 (stereo not shown) [Example 146] |
| 8.7 | COc1cccc(OC(CCN2CCC(c3cccc(NC(=O)C(C)C)c3)CC2)c2ccc(Br)cc2)c1 (stereo not shown) [Example 147] |
| 24.7 | COC(=O)c1ccc(OC(CCN2CCC(c3cccc(NC(=O)C(C)C)c3)CC2)c2ccc(Br)cc2)cc1 (stereo not shown) [Example 148, METHYL 4-(1-(4-BROMOPHENYL)-3-{4-[3-(ISOBUTYRYLAMINO)PHENYL]-1-PIPERIDINYL}PROPOXY)BENZOATE] |

| Ki [nM] | SMILES |
| --- | --- |
| 149 | CC(C)C(=O)Nc1cccc(C2CCN(CCC(Oc3ccc(Oc4ccccc4)cc3)c3ccc(Br)cc3)CC2)c1 (stereo not shown) [Example 149] |
| 8 | Cc1ccc(OC(CCN2CCC(c3cccc(NC(=O)C(C)C)c3)CC2)c2ccc(Br)cc2)c(Cl)c1 (stereo not shown) [Example 150] |
| 14.2 | CC(C)C(=O)Nc1cccc(C2CCN(CCC(Oc3ccccc3)c3ccc(Br)cc3)CC2)c1 (stereo not shown) [Example 151] |
| 13.3 | CC(C)C(=O)Nc1cccc(C2CCN(CCC(Oc3ccc(C(F)(F)F)cc3)c3ccc(Br)cc3)CC2)c1 (stereo not shown) [Example 152] |
| 8.1 | CC(=O)c1ccccc1OC(CCN1CCC(c2cccc(NC(=O)C(C)C)c2)CC1)c1ccc(Br)cc1 (stereo not shown) [Example 153] |
| 9.3 | CC(=O)c1cccc(OC(CCN2CCC(c3cccc(NC(=O)C(C)C)c3)CC2)c2ccc(Br)cc2)c1 (stereo not shown) [Example 154] |
| 7.4 | CC(=O)c1cccc(OC(CCN2CCC(c3cccc(NC(=O)C(C)C)c3)CC2)c2ccc3c(c2)CCC3)c1 (stereo not shown) [Example 155] |
| 8.8 | CC(C)C(=O)Nc1cccc(C2CCN(CCC(Oc3ccccc3)c3ccc4c(c3)CCC4)CC2)c1 (stereo not shown) [Example 156] |
| 15.4 | CC(=O)c1ccccc1OC(CCN1CCC(c2cccc(NC(=O)C(C)C)c2)CC1)c1ccc2c(c1)CCC2 (stereo not shown) [Example 157, N-(3-{1-[3-(2- ACETYLPHENOXY)-3-(2,3-DIHYDRO-1H-INDEN-5-YL)PROPYL]-4-PIPERIDINYL}PHENYL)-2-METHYLPROPANAMIDE] |
| 7.8 | CC(C)C(=O)Nc1cccc(C2CCN(CCC(Oc3ccc(Br)cc3)c3ccc(Br)cc3)CC2)c1 (stereo not shown) [Example 158] |
| 4.5 | CC(C)C(=O)Nc1cccc(C2CCN(CCC(Oc3ccc(Cl)cc3)c3ccc(Br)cc3)CC2)c1 (stereo not shown) [Example 159] |
| 6.2 | CC(C)C(=O)Nc1cccc(C2CCN(CCC(Oc3ccc(F)cc3)c3ccc(Br)cc3)CC2)c1 (stereo not shown) [Example 160] |
| 7.9 | COc1ccc(OC(CCN2CCC(c3cccc(NC(=O)C(C)C)c3)CC2)c2ccc3c(c2)CCC3)cc1 (stereo not shown) [Example 161] |
| 7.2 | CC(C)C(=O)Nc1cccc(C2CCN(CCC(Oc3ccc(F)cc3)c3ccc4c(c3)CCC4)CC2)c1 (stereo not shown) [Example 162] |
| 58.3 | CC(C)C(=O)Nc1cccc(C2CCN(CCC(O)c3ccc4c(c3)CCC4)CC2)c1 (stereo not shown) [Example 163] |
| 16.3 | CC(C)C(=O)Nc1cccc(C2CCN(CCC(Oc3ccc(C(F)(F)F)cc3)c3ccc4c(c3)CCC4)CC2)c1 (stereo not shown) [Example 164] |
| 6.2 | CC(C)C(=O)Nc1cccc(C2CCN(CCC(Oc3ccc(Br)cc3)c3ccc4c(c3)CCC4)CC2)c1 (stereo not shown) [Example 165, N-(3-{1-[3-(4- BROMOPHENOXY)-3-(2,3-DIHYDRO-1H-INDEN-5-YL)PROPYL]-4-PIPERIDINYL}PHENYL)-2-METHYLPROPANAMIDE] |
| 7.7 | CC(=O)c1cccc(OC(CCN2CCC(c3cccc(NC(=O)C(C)C)c3)CC2)c2ccc(Cl)cc2)c1 (stereo not shown) [Example 166] |
| 80.4 | COc1ccc(OC(CCN2CCC(c3cccc(NC(=O)C(C)C)c3)CC2)c2ccc(OC)cc2)cc1 (stereo not shown) [Example 167] |
| 7 | CC(C)C(=O)Nc1cccc(C2CCN(CCC(Oc3ccc(Cl)cc3)c3ccc4c(c3)CCC4)CC2)c1 (stereo not shown) [Example 168] |
| 7.7 | CC(=O)c1ccccc1OC(CCN1CCC(c2cccc(NC(=O)C(C)C)c2)CC1)c1ccc(Cl)cc1 (stereo not shown) [Example 169] |
| 3 | COc1ccc(OC(CCN2CCC(c3cccc(NC(=O)C(C)C)c3)CC2)c2ccc(Br)cc2)cc1 (stereo not shown) [Example 170] |
